{
  "source": "ChEMBL document CHEMBL4304811",
  "about": "“Development of a Water-Soluble Indolylmaleimide Derivative IM-93 Showing Dual Inhibition of Ferroptosis and NETosis” (ACS Med Chem Lett, 2019)",
  "key": {"[1]": {"system": "Tyrosine-protein kinase ABL1 (Homo sapiens), P00519 [Q252H]", "experiment": "Binding affinity to human non-phosphorylated ABL1 Q252H mutant (S229 to K512 residues) expressed in mammalian expression system assessed as residual binding level at 10 uM by Kinomescan method relative to control"}, "[2]": {"target": "Tyrosine-protein kinase ABL2 (Homo sapiens) (UniProt P42684)", "experiment": "Binding affinity to wild-type human ABL2 (A248 to G542 residues) expressed in bacterial expression system assessed as residual binding level at 10 uM by Kinomescan method relative to control"}, "[3]": {"target": "Serine/threonine-protein kinase BRSK1 (Homo sapiens) (UniProt Q8TDC3)", "sequence (Q8TDC3 whole entry, the tested form may be a part)": "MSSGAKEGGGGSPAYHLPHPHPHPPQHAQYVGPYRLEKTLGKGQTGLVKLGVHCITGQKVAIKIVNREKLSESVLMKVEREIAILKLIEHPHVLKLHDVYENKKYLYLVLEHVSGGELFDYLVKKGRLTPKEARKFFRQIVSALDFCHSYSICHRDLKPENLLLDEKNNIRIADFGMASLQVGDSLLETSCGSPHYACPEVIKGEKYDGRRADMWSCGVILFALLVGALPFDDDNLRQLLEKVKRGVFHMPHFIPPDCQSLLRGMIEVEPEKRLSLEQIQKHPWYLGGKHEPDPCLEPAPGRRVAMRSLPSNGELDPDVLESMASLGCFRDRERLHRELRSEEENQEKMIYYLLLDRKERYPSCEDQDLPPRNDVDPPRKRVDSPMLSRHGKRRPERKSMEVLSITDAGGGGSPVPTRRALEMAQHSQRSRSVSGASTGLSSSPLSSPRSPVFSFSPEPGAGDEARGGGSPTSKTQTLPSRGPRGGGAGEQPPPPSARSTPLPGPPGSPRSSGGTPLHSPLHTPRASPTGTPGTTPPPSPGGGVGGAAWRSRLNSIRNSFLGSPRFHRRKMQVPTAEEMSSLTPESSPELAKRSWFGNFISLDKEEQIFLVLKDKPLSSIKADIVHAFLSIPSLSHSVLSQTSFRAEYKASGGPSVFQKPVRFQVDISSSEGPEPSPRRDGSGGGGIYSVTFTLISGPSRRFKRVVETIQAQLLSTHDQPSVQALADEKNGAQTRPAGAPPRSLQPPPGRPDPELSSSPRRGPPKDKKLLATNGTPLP", "experiment": "Binding affinity to wild-type human partial length BRSK1 (M1 to E754 residues) expressed in bacterial expression system assessed as residual binding level at 10 uM by Kinomescan method relative to control"}, "[4]": {"target": "Calcium/calmodulin-dependent protein kinase type II subunit alpha (Homo sapiens) (UniProt Q9UQM7)", "sequence (Q9UQM7 whole entry, the tested form may be a part)": "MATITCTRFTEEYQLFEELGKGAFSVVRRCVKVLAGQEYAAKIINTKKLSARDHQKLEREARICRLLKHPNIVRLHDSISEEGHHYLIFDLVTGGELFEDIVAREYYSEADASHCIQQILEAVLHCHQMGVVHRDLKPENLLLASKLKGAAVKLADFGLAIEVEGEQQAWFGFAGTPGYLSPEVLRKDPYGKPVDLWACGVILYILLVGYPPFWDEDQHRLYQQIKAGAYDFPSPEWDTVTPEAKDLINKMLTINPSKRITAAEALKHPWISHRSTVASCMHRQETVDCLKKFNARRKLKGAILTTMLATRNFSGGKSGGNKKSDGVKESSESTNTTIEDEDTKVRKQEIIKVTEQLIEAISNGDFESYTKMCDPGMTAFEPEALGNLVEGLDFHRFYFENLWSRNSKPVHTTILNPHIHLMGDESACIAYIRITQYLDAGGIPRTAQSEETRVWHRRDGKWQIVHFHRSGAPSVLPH", "experiment": "Binding affinity to wild-type human partial length CAMK2A (M1 to K328 residues) expressed in bacterial expression system assessed as residual binding level at 10 uM by Kinomescan method relative to control"}, "[5]": {"target": "Casein kinase I isoform gamma-2 (Homo sapiens) (UniProt P78368)", "experiment": "Binding affinity to wild-type human full length CSNK1G2 (M1 to K415 residues) expressed in bacterial expression system assessed as residual binding level at 10 uM by Kinomescan method relative to control"}, "[6]": {"target": "Discoidin domain-containing receptor 2 (Homo sapiens) (UniProt Q16832)", "experiment": "Binding affinity to wild-type human partial length DDR2 (V555 to E855 residues) expressed in mammalian expression system assessed as residual binding level at 10 uM by Kinomescan method relative to control"}, "[7]": {"target": "Ephrin type-A receptor 3 (Homo sapiens) (UniProt P29320)", "experiment": "Binding affinity to wild-type human partial length EPHA3 (D604 to K889 residues) expressed in bacterial expression system assessed as residual binding level at 10 uM by Kinomescan method relative to control"}, "[8]": {"target": "Receptor tyrosine-protein kinase erbB-3 (Homo sapiens) (UniProt P21860)", "experiment": "Binding affinity to wild-type human partial length ERBB3 (G684 to A987 residues) expressed in mammalian expression system assessed as residual binding level at 10 uM by Kinomescan method relative to control"}, "[9]": {"target": "Mitogen-activated protein kinase 3 (Homo sapiens) (UniProt P27361)", "sequence (P27361 whole entry, the tested form may be a part)": "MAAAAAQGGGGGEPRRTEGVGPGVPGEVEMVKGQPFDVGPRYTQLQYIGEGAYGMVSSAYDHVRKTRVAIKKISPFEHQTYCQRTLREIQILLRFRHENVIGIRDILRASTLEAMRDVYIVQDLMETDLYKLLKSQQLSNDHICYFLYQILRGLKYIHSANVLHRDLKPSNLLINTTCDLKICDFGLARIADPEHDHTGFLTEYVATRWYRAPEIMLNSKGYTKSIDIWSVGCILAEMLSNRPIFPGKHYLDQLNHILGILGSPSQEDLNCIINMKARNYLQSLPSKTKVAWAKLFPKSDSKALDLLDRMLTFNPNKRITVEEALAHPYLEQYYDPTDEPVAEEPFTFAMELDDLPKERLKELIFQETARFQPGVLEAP", "experiment": "Binding affinity to wild-type human full length ERK1 (M1 to P379 residues) expressed in bacterial expression system assessed as residual binding level at 10 uM by Kinomescan method relative to control"}, "[10]": {"target": "Mitogen-activated protein kinase 7 (Homo sapiens) (UniProt Q13164)", "experiment": "Binding affinity to wild-type human partial length ERK5 (M1 to A409 residues) expressed in bacterial expression system assessed as residual binding level at 10 uM by Kinomescan method relative to control"}, "[11]": {"target": "Mitogen-activated protein kinase 15 (Homo sapiens) (UniProt Q8TD08)", "sequence (Q8TD08 whole entry, the tested form may be a part)": "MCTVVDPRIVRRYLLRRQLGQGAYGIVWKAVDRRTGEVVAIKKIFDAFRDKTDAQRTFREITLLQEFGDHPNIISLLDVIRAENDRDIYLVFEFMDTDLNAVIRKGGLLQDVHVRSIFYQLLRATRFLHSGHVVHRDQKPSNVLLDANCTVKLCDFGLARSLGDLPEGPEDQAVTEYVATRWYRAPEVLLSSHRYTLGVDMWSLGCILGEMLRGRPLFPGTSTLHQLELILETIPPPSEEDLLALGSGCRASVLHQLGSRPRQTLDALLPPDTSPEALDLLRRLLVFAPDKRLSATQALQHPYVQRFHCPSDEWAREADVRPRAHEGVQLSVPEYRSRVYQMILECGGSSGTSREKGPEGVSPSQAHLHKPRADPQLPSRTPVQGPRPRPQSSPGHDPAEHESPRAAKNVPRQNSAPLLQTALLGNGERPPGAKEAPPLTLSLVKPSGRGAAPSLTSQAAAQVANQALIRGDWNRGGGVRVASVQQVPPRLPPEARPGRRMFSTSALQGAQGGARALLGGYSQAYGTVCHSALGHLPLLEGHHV", "experiment": "Binding affinity to wild-type human partial length ERK8 (M1 to P437 residues) expressed in bacterial expression system assessed as residual binding level at 10 uM by Kinomescan method relative to control"}, "[12]": {"system": "Fibroblast growth factor receptor 3 (Homo sapiens), P22607 [G697C]", "experiment": "Binding affinity to human partial length FGFR3 G697C mutant (R442 to S771 residues) expressed in bacterial expression system assessed as residual binding level at 10 uM by Kinomescan method relative to control"}, "[13]": {"system": "Receptor-type tyrosine-protein kinase FLT3 (Homo sapiens), P36888 [N841I]", "experiment": "Binding affinity to human partial length FLT3 N841I mutant (V592 to Y969 residues) expressed in bacterial expression system assessed as residual binding level at 10 uM by Kinomescan method relative to control"}, "[14]": {"target": "Hormonally up-regulated neu tumor-associated kinase (Homo sapiens) (UniProt P57058)", "sequence (P57058 whole entry, the tested form may be a part)": "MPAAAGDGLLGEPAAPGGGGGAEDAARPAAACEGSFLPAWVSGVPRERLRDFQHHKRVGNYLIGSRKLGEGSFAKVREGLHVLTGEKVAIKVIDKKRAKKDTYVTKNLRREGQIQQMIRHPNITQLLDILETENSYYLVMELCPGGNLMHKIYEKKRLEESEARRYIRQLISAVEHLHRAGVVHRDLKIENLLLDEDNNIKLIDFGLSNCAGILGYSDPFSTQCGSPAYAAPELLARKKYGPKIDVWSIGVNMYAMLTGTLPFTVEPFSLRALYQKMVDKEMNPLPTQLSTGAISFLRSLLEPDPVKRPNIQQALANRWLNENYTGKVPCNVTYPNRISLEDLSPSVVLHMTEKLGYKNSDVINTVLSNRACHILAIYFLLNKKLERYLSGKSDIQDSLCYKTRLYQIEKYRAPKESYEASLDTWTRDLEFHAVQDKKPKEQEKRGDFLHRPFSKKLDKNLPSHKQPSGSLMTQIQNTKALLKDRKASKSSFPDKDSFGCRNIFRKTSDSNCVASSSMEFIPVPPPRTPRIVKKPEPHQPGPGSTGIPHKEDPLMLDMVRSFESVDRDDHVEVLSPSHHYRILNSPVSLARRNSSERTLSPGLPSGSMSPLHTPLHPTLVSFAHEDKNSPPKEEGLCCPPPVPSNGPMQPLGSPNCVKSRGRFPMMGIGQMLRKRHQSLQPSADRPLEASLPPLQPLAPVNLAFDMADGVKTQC", "experiment": "Binding affinity to wild-type human partial length HUNK (A31 to K354 residues) expressed in bacterial expression system assessed as residual binding level at 10 uM by Kinomescan method relative to control"}, "[15]": {"target": "Mitogen-activated protein kinase 9 (Homo sapiens) (UniProt P45984)", "experiment": "Binding affinity to wild-type human full length JNK2 (M1 to Q382 residues) expressed in mammalian expression system assessed as residual binding level at 10 uM by Kinomescan method relative to control"}, "[16]": {"target": "Mitogen-activated protein kinase kinase kinase 3 (Homo sapiens) (UniProt Q99759)", "experiment": "Binding affinity to wild-type human partial length MAP3K3 (E320 to Y626 residues) expressed in mammalian expression system assessed as residual binding level at 10 uM by Kinomescan method relative to control"}, "[17]": {"target": "Mitogen-activated protein kinase kinase kinase kinase 2 (Homo sapiens) (UniProt Q12851)", "experiment": "Binding affinity to wild-type human partial length MAP4K2 (M1 to G318 residues) expressed in mammalian expression system assessed as residual binding level at 10 uM by Kinomescan method relative to control"}, "[18]": {"target": "Mitogen-activated protein kinase kinase kinase kinase 5 (Homo sapiens) (UniProt Q9Y4K4)", "experiment": "Binding affinity to wild-type human partial length MAP4K5 (M1 to P297 residues) expressed in bacterial expression system assessed as residual binding level at 10 uM by Kinomescan method relative to control"}, "[19]": {"target": "Serine/threonine-protein kinase OSR1 (Homo sapiens) (UniProt O95747)", "experiment": "Binding affinity to wild-type human full length OSR1 (M1 to S527 residues) expressed in mammalian expression system assessed as residual binding level at 10 uM by Kinomescan method relative to control"}, "[20]": {"target": "Serine/threonine-protein kinase PAK 6 (Homo sapiens) (UniProt Q9NQU5)", "sequence (Q9NQU5 whole entry, looked up, the tested form may be a part)": "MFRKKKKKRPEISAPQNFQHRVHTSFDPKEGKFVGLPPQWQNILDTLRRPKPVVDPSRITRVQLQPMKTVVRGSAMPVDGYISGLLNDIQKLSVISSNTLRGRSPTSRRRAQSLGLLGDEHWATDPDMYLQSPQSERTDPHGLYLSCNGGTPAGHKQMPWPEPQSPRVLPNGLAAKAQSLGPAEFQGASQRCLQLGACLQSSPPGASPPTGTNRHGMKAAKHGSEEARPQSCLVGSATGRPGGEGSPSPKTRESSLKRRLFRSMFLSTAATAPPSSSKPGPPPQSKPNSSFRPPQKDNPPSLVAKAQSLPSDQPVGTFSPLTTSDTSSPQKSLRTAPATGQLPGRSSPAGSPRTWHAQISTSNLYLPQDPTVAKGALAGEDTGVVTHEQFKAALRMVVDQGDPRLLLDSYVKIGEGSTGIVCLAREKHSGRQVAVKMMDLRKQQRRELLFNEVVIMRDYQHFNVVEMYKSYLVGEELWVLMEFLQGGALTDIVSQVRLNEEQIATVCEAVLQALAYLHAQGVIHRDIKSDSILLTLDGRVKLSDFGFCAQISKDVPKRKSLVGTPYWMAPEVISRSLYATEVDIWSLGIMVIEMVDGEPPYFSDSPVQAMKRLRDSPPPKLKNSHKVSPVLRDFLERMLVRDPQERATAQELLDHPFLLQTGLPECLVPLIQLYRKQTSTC", "experiment": "Binding affinity to wild-type human partial length PAK6 (N298 to C681 residues) expressed in bacterial expression system assessed as residual binding level at 10 uM by Kinomescan method relative to control"}, "[21]": {"target": "Serine/threonine-protein kinase D3 (Homo sapiens) (UniProt O94806)", "sequence (O94806 whole entry, the tested form may be a part)": "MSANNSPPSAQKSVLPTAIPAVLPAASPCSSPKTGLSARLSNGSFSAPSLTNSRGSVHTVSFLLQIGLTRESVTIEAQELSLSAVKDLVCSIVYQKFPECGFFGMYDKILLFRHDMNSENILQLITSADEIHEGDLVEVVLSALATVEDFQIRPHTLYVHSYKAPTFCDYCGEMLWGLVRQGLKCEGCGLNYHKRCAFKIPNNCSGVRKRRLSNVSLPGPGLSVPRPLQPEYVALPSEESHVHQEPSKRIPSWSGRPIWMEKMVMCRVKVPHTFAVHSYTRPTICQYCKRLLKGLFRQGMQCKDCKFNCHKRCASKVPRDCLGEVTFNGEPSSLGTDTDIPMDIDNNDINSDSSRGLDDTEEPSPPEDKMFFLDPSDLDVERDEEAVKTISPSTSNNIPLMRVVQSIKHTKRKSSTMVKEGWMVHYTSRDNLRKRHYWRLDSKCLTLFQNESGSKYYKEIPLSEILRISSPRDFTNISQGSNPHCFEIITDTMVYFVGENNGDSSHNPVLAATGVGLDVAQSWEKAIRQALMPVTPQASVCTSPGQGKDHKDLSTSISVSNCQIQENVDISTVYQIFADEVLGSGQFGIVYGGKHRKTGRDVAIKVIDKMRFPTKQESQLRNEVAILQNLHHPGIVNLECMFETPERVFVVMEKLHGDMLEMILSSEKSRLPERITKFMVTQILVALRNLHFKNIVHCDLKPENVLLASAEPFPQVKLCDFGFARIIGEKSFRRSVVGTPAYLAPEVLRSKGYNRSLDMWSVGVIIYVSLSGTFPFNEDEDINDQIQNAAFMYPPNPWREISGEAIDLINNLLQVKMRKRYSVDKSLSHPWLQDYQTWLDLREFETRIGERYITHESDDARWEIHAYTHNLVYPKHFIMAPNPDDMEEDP", "experiment": "Binding affinity to wild-type human partial length PRKD3 (S543 to E863 residues) expressed in bacterial expression system assessed as residual binding level at 10 uM by Kinomescan method relative to control"}, "[22]": {"target": "Serine/threonine-protein kinase RIO2 (Homo sapiens) (UniProt Q9BVS4)", "sequence (Q9BVS4 whole entry, looked up, the tested form may be a part)": "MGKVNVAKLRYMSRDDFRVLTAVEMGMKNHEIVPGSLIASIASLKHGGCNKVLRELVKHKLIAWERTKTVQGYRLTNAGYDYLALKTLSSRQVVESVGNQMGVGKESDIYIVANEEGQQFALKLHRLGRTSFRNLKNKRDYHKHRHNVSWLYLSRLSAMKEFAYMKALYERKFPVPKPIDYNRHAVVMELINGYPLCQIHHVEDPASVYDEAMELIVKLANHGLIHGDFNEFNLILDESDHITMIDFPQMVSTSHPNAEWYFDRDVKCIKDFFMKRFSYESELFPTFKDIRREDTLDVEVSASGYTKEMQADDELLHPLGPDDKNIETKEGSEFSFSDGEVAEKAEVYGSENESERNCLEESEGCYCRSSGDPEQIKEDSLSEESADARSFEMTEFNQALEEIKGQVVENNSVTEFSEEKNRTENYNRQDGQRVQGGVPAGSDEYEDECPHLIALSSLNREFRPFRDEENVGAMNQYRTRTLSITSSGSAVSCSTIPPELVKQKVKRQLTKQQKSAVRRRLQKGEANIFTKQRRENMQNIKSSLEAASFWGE", "experiment": "Binding affinity to wild-type human partial length RIOK2 (M1 to D313 residues) expressed in mammalian expression system assessed as residual binding level at 10 uM by Kinomescan method relative to control"}, "[23]": {"target": "Wee1-like protein kinase 2 (Homo sapiens) (UniProt P0C1S8)", "experiment": "Binding affinity to wild-type human partial length WEE2 (M204 to K492 residues) expressed in bacterial expression system assessed as residual binding level at 10 uM by Kinomescan method relative to control"}, "[24]": {"experiment": "Stability of compound in D2O at 0.012 mmol followed by TBHP addition measured after 24 hrs by 1H-NMR spectroscopy", "type": "physicochemical"}, "Neutrophil": {"system": "Neutrophil", "experiment": "Inhibition of PMA-induced superoxide production in C57BL6 mouse neutrophils at 10 uM preincubated for 30 mins followed by PMA stimulation and measured after 30 mins by luminol-lucignenin based luminescence assay", "type": "functional, cell-based"}},
  "note": "Active and inactive are the calls of the source. No cut-off for these calls is given here.",
  "data": [
    {"smiles": "CC(C)N1C(=O)C(NCCCN(C)C)=C(c2cn(C)c3ccccc23)C1=O.Cl", "values": [
      {"measurement": "Activity", "setting": "[1]", "value": 100, "unit": "%"},
      {"measurement": "Activity", "setting": "[2]", "value": 98, "unit": "%"},
      {"measurement": "Activity", "setting": "[3]", "value": 85, "unit": "%"},
      {"measurement": "Activity", "setting": "[4]", "value": 100, "unit": "%"},
      {"measurement": "Activity", "setting": "[5]", "value": 91, "unit": "%"},
      {"measurement": "Activity", "setting": "[6]", "value": 100, "unit": "%"},
      {"measurement": "Activity", "setting": "[7]", "value": 100, "unit": "%"},
      {"measurement": "Activity", "setting": "[8]", "value": 93, "unit": "%"},
      {"measurement": "Activity", "setting": "[9]", "value": 87, "unit": "%"},
      {"measurement": "Activity", "setting": "[10]", "value": 100, "unit": "%"},
      {"measurement": "Activity", "setting": "[11]", "value": 95, "unit": "%"},
      {"measurement": "Activity", "setting": "[12]", "value": 79, "unit": "%"},
      {"measurement": "Activity", "setting": "[13]", "value": 100, "unit": "%"},
      {"measurement": "Activity", "setting": "[14]", "value": 100, "unit": "%"},
      {"measurement": "Activity", "setting": "[15]", "value": 80, "unit": "%"},
      {"measurement": "Activity", "setting": "[16]", "value": 100, "unit": "%"},
      {"measurement": "Activity", "setting": "[17]", "value": 85, "unit": "%"},
      {"measurement": "Activity", "setting": "[18]", "value": 100, "unit": "%"},
      {"measurement": "Activity", "setting": "[19]", "value": 77, "unit": "%"},
      {"measurement": "Activity", "setting": "[20]", "value": 100, "unit": "%"},
      {"measurement": "Activity", "setting": "[21]", "value": 91, "unit": "%"},
      {"measurement": "Activity", "setting": "[22]", "value": 91, "unit": "%"},
      {"measurement": "Activity", "setting": "[23]", "value": 100, "unit": "%"},
      {"measurement": "Stability", "setting": "[24]", "value": "Stable"},
      {"measurement": "inhibition", "setting": "Neutrophil", "value": "inactive"}
    ]}
  ]
}
